“Also recorded” adds a separate entry of the source. Read-outs that look alike come from different tables or passages of the source.
How the values were obtained:
[1] = test system: IL-6; assay: IL-6 release from human ulcerative colitis colon mucosal biopsies (SEB-stimulated, multiplex ELISA); type: cell-based; settings: about 18 hours, 50 ng/mL SEB
[2] = Bioavailability in rats; settings: rat, in vivo, oral
[3] = Bioavailability in monkeys; settings: monkey, in vivo, oral
[4] = test system: DNBS-induced colitis in Wistar rats; assay: DNBS-induced colitis in Wistar rats; type: in vivo; settings: day 1-7
[5] = test system: TNBS-induced colitis in C57BL/6 mice; assay: TNBS-induced colitis in C57BL/6 mice, macroscopic and microscopic colon observations; type: in vivo; settings: for histology of colon sections (H&E): day 3 after TNBS instillation (FIG. 5B)
Text: Colitis was induced in C57BL/6 mice by instillation of trinitrobenzene sulfonic acid (TNBS) in the colons according to conventional methods. See Antoniou, et al., Ann. Medicine and Surgery, vol. 11, 9-15 (2016).
FIGS. 5A-B show histological observations of colon sections from C57BL/6 mice. All animals were sacrificed on day 3 after the TNBS instillation to induce colitis as described above, and tissues are visualized by H&E (hematoxylin and eosin) staining.
The second panel in FIG. 5B is tissue from a colon instilled with TNBS and treated with 10 mg/kg SPH-X twice daily, administered intraperitoneally.

[6] = test system: TNF-α; assay: Western blot of TNF-α protein in mucosal lysates, TNBS colitis mice; type: in vivo; settings: 10 mg/kg twice daily for three days, listed as SPH-X
Procedure: To assess the effect of SPH-X in this model at the molecular level, colitis was again induced in mice by TNBS instillation (three per treatment group), using ethanol as a control. Test animals were treated with either vehicle (PBS) or SPH-X (10 mg/kg i.p., twice daily) for three days following the TNBS injury and were then sacrificed. Colonic mucosa were isolated from each test animal and used to prepare mRNA. The mRNA was reverse transcribed to provide cDNAs.
Finally, mucosal lysates from test animals treated as described for the cytokine analysis were prepared and analyzed by Western blot to see how SPH-X affects TNF-α protein levels in the colitis model.

[7] = test system: IL-17A; assay: IL-17A release from human ulcerative colitis colon mucosal biopsies (multiplex ELISA); type: cell-based; settings: some UC patients; 10-300 nM
[8] = test system: TNF-α; assay: TNF-α release from human ulcerative colitis colon mucosal biopsies (multiplex ELISA); type: cell-based; settings: some UC patients; 10-300 nM
[9] = Tekturna (aliskiren) label; cited from earlier work
[10] = test system: TNBS-induced colitis in RenTgMK mice; settings: TNBS instillation, aliskiren by intraperitoneal injection; cited from earlier work
[11] = UC Donor C, Formula (I) malate salt 10-300 nM, Birb 796 1 μM

In the case of `Cc1ccc(-n2nc(C(C)(C)C)cc2NC(=O)Nc2ccc(OCCN3CCOCC3)c3ccccc23)cc1` [Birb 796, reference compound], the IL-6 production [1, 11] is reported as “reduction of IL-6”.
`COC(=O)NCCCn1nc([C@@H](C)N(C(=O)C2CNCCO2)C2CC2)c2ccc(C)nc21` (stereo partly drawn) [Formula (I)] showed a bioavailability [2] of 11.5 to 24.5% and a bioavailability [3] of 3.3 to 11.3%.
With `COC(=O)NCCCn1nc([C@@H](C)N(C(=O)C2CNCCO2)C2CC2)c2ccc(C)nc21.O=C(O)C[C@H](O)C(=O)O` (stereo partly drawn) [Formula I malate salt] the colon length ([4]; 30 mg/kg q.d. p.o.) was “significantly increased colon length”, the “histology of colon sections (H&E)” value ([5]; 5 mg/kg BID, listed as SPH-X) was “substantially prevents or treats any injury caused by TNBS instillation; also recorded: treats or prevents such damage” and the “interior of colons dissected longitudinally (bleeding at the distal ends)” value ([5]; 10 mg/kg intraperitoneally after TNBS instillation (FIG. 4B)) was “do not show such damage”. For the same compound, the “histology of colon sections (H&E)” value ([5]; 10 mg/kg twice daily intraperitoneally, listed as SPH-X) was “substantially protects the colon from injury caused by TNBS; also recorded: treats or prevents such damage”, the “gross morphology of colons” value ([5]; 20 mg/kg BID intraperitoneal, 7 days after TNBS instillation (FIG. 4A), listed as SPH-X) was “appear more normal; also recorded: substantially reverses damage caused by TNBS” and the “TNF-α protein level (Western blot)” value [6] was “no TNF-α protein was seen; also recorded: reduces or stops formation of TNF-α”. For the same compound, the IL-6 production [1, 11] was “does not show reduction in IL-6”, the IL-6 production ([1]; UC Donors A and B, 10-300 nM) was “significant dose-related decreases” and the “release of IL-17A” value [7] was “dose-related reductions”. The “release of tumor necrosis factor alpha (TNF-α)” value [8] was “dose-related reductions”.
With `C[C@@H]1CCN(C(=O)CC#N)C[C@@H]1N(C)c1ncnc2[nH]ccc12` [Tofacitinib] the “CW/BW ratio improved by” value ([4]; 30 mg/kg BID p.o.) was 9%, the “CW/CL ratio improved by” value ([4]; 30 mg/kg BID p.o.) was 37% and the “CW/CL/BW ratio improved by” value ([4]; 30 mg/kg BID p.o.) was 14%.
In the case of `COCCCOc1cc(C[C@@H](C[C@H](N)[C@@H](O)C[C@H](C(=O)NCC(C)(C)C(N)=O)C(C)C)C(C)C)ccc1OC` [aliskiren], the bioavailability [9] is given as 2.5% and the “effect on induced colitis” value [10] is given as “ameliorated this induced colitis”.
